How the values were obtained:
CAR-expressing T cells = test: RNA-Seq molecular signature of CAR-expressing T cells after 18 days of serial stimulation; format: cell-based, human
Experimental: RNA isolation was performed using the RNEasy Micro Kit (Qiagen). Samples were sequenced and RNASeq reads were mapped to the human genome (GRCh38) and aligned to the GENCODE release 24 gene model. […] Differentially expressed genes were identified by imposing a log2 fold change cutoff of 0.5 and a Benjamini-Hochberg adjusted false discovery rate (FDR) cutoff of 0.05.

anti-CD19 CAR T cells [1] = test: Cytokine production in supernatants of CAR-T / K562-CD19 co-cultures (MSD); format: cell-based, human
Description: (§1) To generate CAR-expressing T cells, T cells were isolated by immunoaffinity-based enrichment from three healthy human donor subjects, and cells from each donor were activated and transduced with a viral vector encoding an anti-CD19 CAR. The CAR contained an anti-CD19 scFv, an Ig-derived spacer, a human CD28-derived transmembrane domain, a human 4-1BB-derived intracellular signaling domain and a human CD3 zeta-derived signaling domain. The nucleic acid construct encoding the CAR also included a truncated EGFR (tEGFR) sequence for use as a transduction marker, separated from the CAR sequence by a self-cleaving T2A sequence.
(§2) CAR-expressing CD4+ and CD8+ cells were mixed 1:1 for each donor, individually, and the pooled cells for each donor assessed in vitro under various conditions.
CAR-T cells generated as described above were plated at 100,000 cells/well on 96 well Poly-D-Lysine coated plates to which irradiated target cells (K562-CD19) were added at an effector to target ratio of 2.5:1. […] Culture supernatants were harvested every 24 hrs at days 1, 2, 3 and 4, and IFNγ, IL-2, TNFα, IL-4 and IL-10 were measured from the culture supernatants using cytokine kits from Meso Scale Discovery (MSD).

[2] = tested on: anti-CD19 CAR-T cells from DLBCL subjects; test: Serial restimulation and cytolytic function of anti-CD19 CAR-T cells manufactured from DLBCL patients; format: cell-based, human
Description: Cells were subjected to serial restimulation over a 21 day culture period and monitored for cell expansion and cytotoxic activity.

anti-CD19 CAR T cells [3] = test: TH1 phenotype (CD4+CXCR3+CRTH2-) and activation/memory markers by flow cytometry during serial restimulation; format: cell-based, human
Experimental: (§3) The ability of cells to expand ex vivo following repeated stimulations in some aspects can indicates capacity of CAR-T cells to persist (e.g., following initial activation) and/or is indicative of function and/or fitness in vivo (Zhao et al. (2015) Cancer Cell, 28:415-28). Anti-CD19 CAR+ T cells generated as described above were plated in triplicate at 100,000 cells/well on 96 well Poly-D-Lysine coated plates, and irradiated target cells (K562-CD19) were added at an effector to target ratio of 2.5:1. […] A total of 7 rounds of stimulation during a 25 day culture period were carried out.
A serial restimulation assay was performed as described above and cells were harvested at various times and analyzed by flow cytometry to assess percentage of TH1-phenotype (assessed as CD4+CXCR3+CRTH2−) T cells or TH2-phenotype (assessed as CD4+CXCR3−CRTH2+).

[4] = in vivo; cited from earlier work
anti-CD19 CAR T cells [5] = test: Serial restimulation assay of anti-CD19 CAR+ T cells with K562-CD19 target cells; format: cell-based, human; settings: day 18; both concentrations (50, 500 nM); two of three donors
Description: as §1, §2, §3

CAR T cells = test: CD62L expression by flow cytometry after 18 days of serial stimulation; format: cell-based, human; settings: donors 2 and 3
Experimental: as §3

[6] = tested on: CAR+ T cells and Nalm-6 tumor cells; test: Levels of CAR+ T cells and tumor cells in blood, bone marrow and spleen of Nalm-6 bearing mice; format: in vivo, NSG mice
Experimental: (§4) NSG mice described in Example 2 were intravenously injected on day 0 with 5×10^5 Nalm-6 cells expressing firefly luciferase. […] To permit assessment of the effect of a combination therapy with the inhibitor, a suboptimal dose of anti-CD19 CAR T cells was i.v. injected into the mice at 5×10^5/mouse at day 5. As a control, mice were administered the vehicle control without administration of the CAR-T cells or inhibitor.
Samples were analyzed to assess presence and levels of CAR T cells (based on expression of the surrogate marker using an anti-EGFR antibody) and/or tumor cells at days 7, 12, 19 and 26 post CAR+ T cell transfer.

anti-CD19 CAR T cells [7] = test: Gene expression analysis (Nanostring Immune V2 panel) after 18 days of serial stimulation; format: cell-based, human; settings: 50 nM or 500 nM; day 18 of serial restimulation
Experimental: as §3
At day 18 after serial stimulation, RNA was isolated from anti-CD19 CAR T cells and Nanostring Immune V2 panel tests were run across 594 genes. The log 2 (fold change) of each gene was plotted against the −log 10(Raw p-value) derived from ANOVA tests of unscaled housekeeping gene normalized to count data for treatment versus control.

CAR+ T cells = test: Ex vivo immunophenotyping (flow cytometry, t-SNE) of CAR+ T cells at day 12 post CAR T transfer; format: in vivo, NSG mice
Experimental: as §4
Flow cytometry histograms showing the individual expression profiles of CD4, CD8, CD62L, CD45RA, CD44 and CXCR3 from the 4 gated t-SNE in FIG. 8B overlaid on the expression of the total population (shaded) is shown in FIG. 8C.

[8] = tested on: CD19+ Nalm-6 disseminated tumor line; test: Disseminated Nalm-6 tumor xenograft mouse model, ibrutinib in drinking water; format: in vivo, NSG mice
Experimental: as §4

anti-CD19 CAR T cells [9] = test: Cytolytic activity of anti-CD19 CAR T cells co-cultured with K562-CD19 target cells in the presence of ibrutinib (IncuCyte); format: cell-based, human
Description: as §1, §2
The target cells were labeled with NucLight Red (NLR), to permit tracking of target cells by microscopy.

[10] = tested on: CD19+ Nalm-6 disseminated tumor line; test: Disseminated Nalm-6 tumor xenograft mouse model, ibrutinib by daily oral gavage; format: in vivo, NSG mice
Description: On day zero (0), NSG mice were intravenously injected with 5×10^5 Nalm-6 cells expressing firefly luciferase. […] To permit assessment of the effect of a combination therapy with the inhibitor, a suboptimal dose of anti-CD19 CAR T cells from two different donors (generated by transducing cells derived from samples of human donor subjects essentially as described above) were i.v. injected into each mouse at a concentration of 5×10^5 CAR+ T cells per mouse at day 5. […] Eight (N=8) mice per group were monitored.
Following treatment as described above, tumor growth over time was measured by bioluminescence imaging and the average radiance (p/s/cm^2/sr) was measured. Survival of treated mice also was assessed over time.

anti-CD19 CAR T cells [11] = test: Expression of CAR-T cell surface markers by flow cytometry after stimulation with irradiated K562-CD19 cells; format: cell-based, human
Description: as §1, §2
CAR-T cells generated as described above were plated at 100,000 cells/well on 96 well Poly-D-Lysine coated plates. Irradiated K562-CD19 target cells were added at an effector to target ratio of 2.5:1. […] Cells were harvested at 1, 2, 3, and 4 days, and were analyzed by flow cytometry for T cell activation and differentiation surface markers CD69, CD107a, PD-1, CD25, CD38, CD39, CD95, CD62L, CCR7, CD45RO and for truncated EGFR (a surrogate marker for CAR-transduced cells).

C=CC(=O)N1CCC[C@@H](n2nc(-c3ccc(Oc4ccccc4)cc3)c3c(N)ncnc32)C1 [ibrutinib, 1-[(3R)-3-[4-amino-3-(4-phenoxyphenyl)pyrazolo[3,4-d]pyrimidin-1-yl]piperidin-1-yl]prop-2-en-1-one]
gene expression changes (CAR-expressing T cells; 50 nM, day 18): not significant, similar trends | expression of HES6, HIC1, LZTFL1, NRIP1, CD38 and RARRES3 (CAR-expressing T cells; day 18 serial stimulation): downregulation | expression of MSC (CAR-expressing T cells; day 18 serial stimulation): upregulation | expression of SELL/CD62L (CAR-expressing T cells; day 18 serial stimulation): increases | expression of granzyme A and CD38 (CAR-expressing T cells; day 18 serial stimulation): decreases | IFN-γ and IL-2 production (anti-CD19 CAR T cells [1]; 50 nM): some increase | cytokine production (anti-CD19 CAR T cells [1]; 50 nM, some donors): modestly increased | cytokine concentrations (anti-CD19 CAR T cells [1]; physiological concentrations of ibrutinib): did not significantly decrease | cytolytic activity ([2]; 50 nM, 16 days of serial stimulation, one patient, P<0.01): increase in cytolytic activity | cytolytic function ([2]; 500 nM, 16 days of serial stimulation, each subject): increase in cytolytic function | proliferation of CAR T cells (cell doublings) ([2]; 50 and 500 nM, 21 day culture, both DLBCL patients): did not inhibit the proliferation | percentage of TH1 cells (anti-CD19 CAR T cells [3]; 500 nM, P<0.01): further enhanced | additional CAR T activation or memory markers (anti-CD19 CAR T cells [3]; CAR T cells from the serial stimulation assay): No significant effects | percentage of CAR+ T cells with TH1 phenotype (anti-CD19 CAR T cells [3]; after serial stimulation, greater with increasing concentrations): increase the percentage | Cmax [4]: 227 nM | cell numbers and population doublings of anti-CD19 CAR T cells (anti-CD19 CAR T cells [5]): enhanced cell numbers and population doublings | CD62L expression (CAR T cells): significant increase | tumor cells detected in the blood, bone marrow or spleen vs vehicle alone ([6]; CAR+ cell treatment combined with ibrutinib): significantly fewer tumor cells | circulating CAR+ T cells vs CAR+ T cells and vehicle ([6]; blood, ibrutinib in drinking water): significant increase | number of CAR-T cells in the blood ([6]; day 19 post CAR-T cell transfer, p<0.05): significant increase in the number of cells | gene expression (594 genes) (anti-CD19 CAR T cells [7]): did not significantly alter gene expression | population 4 as percentage of CAR-T cells (CAR+ T cells; bone marrow, day 12, ibrutinib-treated animals): 15.2% | phenotype of CAR+ T cells isolated from bone marrow (CAR+ T cells; day 12, CAR-T cells with ibrutinib vs control): phenotypic changes were observed | CD8+CD44hi CXCR3hi CD45RAlo CD62Lhi (population 2) and CD4+CD44hi CXCR3int CD45RAhi CD62Lhi (population 4) in bone marrow vs control mice (CAR+ T cells; day 12 post CAR T transfer): increase | tumor growth vs CAR T with vehicle alone ([8]; ibrutinib 25 mg/kg/day in drinking water with CAR T): significantly (P<0.001) decreased tumor growth | median survival vs suboptimal anti-CD19 CAR T cell dose + vehicle ([8]; ibrutinib 25 mg/kg/day in drinking water with anti-CD19 CAR-T cells, p<0.001): increased median survival | cytolytic function of the anti-CD19 CAR T cells (anti-CD19 CAR T cells [9]; all concentrations tested (0.5-5000 nM) during the co-culture): did not inhibit | target cell killing (anti-CD19 CAR T cells [9]; one donor, P<0.0001): modestly increased target cell killing | cytolytic activity of anti-CD19 CAR-expressing T cells (target cell killing normalized to untreated control, AUC) (anti-CD19 CAR T cells [9]; two donors, concentration increased up to 500 nM, E:T 2.5:1, 4 days): did not significantly impact | survival vs CAR T and vehicle ([10]; greater time points, two donors, ibrutinib with CAR T, p<0.001): significantly increased survival | median survival vs suboptimal anti-CD19 CAR T cell dose + vehicle ([10]; ibrutinib 25 mg/kg qd P.O. with CAR-T cells): increased median survival | tumor growth vs CAR-T cells and vehicle ([10]; ibrutinib 25 mg/kg qd P.O. with suboptimal dose of anti-CD19 CAR T cells, p<0.001, p<0.0001): significantly decreased tumor growth | tumor burden (average radiance) vs vehicle ([10]; ibrutinib alone, 25 mg/kg qd P.O., ibrutinib-resistant model): no effect on tumor burden | expression of truncated EGFR surrogate marker, activation markers CD25, CD38, CD39, CD95, CD62L and phenotypic markers CCR7, CD62L, CD45RO (anti-CD19 CAR T cells [11]; 5000, 500, 50, 5 and 0.5 nM, 3 donors, up to 4 days): no significant effect | expression levels of CD69, CD107a or PD-1 (anti-CD19 CAR T cells [11]; CD4+ or CD8+ cells cultured in the presence of ibrutinib): subtle decrease in expression levels | percentage of anti-CD19 CAR T cells expressing CD69, CD107a or PD-1 (anti-CD19 CAR T cells [11]; highest (supraphysiological) concentration tested): subtle decrease in the percentage | phenotype of cells as central memory (TCM) or effector memory (TEM) subsets (CCR7, CD45RA) (anti-CD19 CAR T cells [11]; over four days after stimulation): did not affect the phenotype

From US20210121466A1, “COMBINATION THERAPY OF A CHIMERIC ANTIGEN RECEPTOR (CAR) T CELL THERAPY AND A KINASE INHIBITOR” (Juno Therapeutics, Inc., priority 2018, published 2021)
